Reference: patent US8039501B2, “Synephrine derivatives useful as anti-inflammatory agents” (Universiteit Gent, priority 2005, dated 2011)

Legend:
[1] = test system: pE-selectin-Luc (E-selectin promoter); test: pE-selectin-Luc reporter gene assay in TNF-induced L929sA cells; assay type: cell-based, mouse; details: 10 microM; TNF-induced; FIG. 1
Description: L929sA mouse fibroblast cells were stably transfected with pE-selectine-Luc (also referred to as pELAM-luc) by the calcium phosphate precipitation procedure described by De Bosscher et al. in Proc. Natl. Acad. Sci. USA (1997) 94, 13504-13509. The co-transfected plasmid pPGKβGeobpA, conferring resistance to G418 and expressing constitutive β-galactosidase enzymatic activity, was used as an internal control. L929sA cells were transiently transfected by the DEAE-dextran transfection method described by De Bosscher et al. (cited supra).
Recombinant murine tumor necrosis factor (TNF) was produced according to a method standard in the art. Dexamethasone (hereinafter abbreviated as DEX) commercially available from Sigma, and 2-(4-acetoxyphenyl)-2-chloro-N-methyl-ethylammonium chloride (hereinafter abbreviated as compound A) was synthesized according to Louw et al. in Biochemical Pharmacology (1997) 53, 189-197). A stock solution was prepared in ethanol (for DEX) or DMSO (for both comparative compound A and for the compound of example 6 according to this invention, i.e. 1-[4-(benzoyloxy)phenyl]-2-[(tert-butoxy-carbonyl)-methylamino]ethyl-1H-imidazole-1-carboxylate), aliquoted and stored at −70° C.
Induction was performed in triplicate for each independent experiment, which was carried out at least twice. Induction with DEX, compound A, and for the compound of example 6 according to this invention at 1 μM, 10 μM or respectively any other indicated concentration were performed at −2 hours for a total of 8 hours, while TNF (2000 IU/ml) was added at time point zero and left on the cells for 6 hours. After induction, cells were lysed with a lysis buffer (commercially available from Tropix, Bedford, Massachussets) and samples were assayed according to the manufacturer's instructions (Promega Biotech).
In order to investigate whether the inhibitory effect of compound A or the compound of example 6 according to this invention is directed at the transcriptional level of NF-κB-driven genes, the NF-κB-dependent physiological promoter construct, pE-selectin-Luc stably integrated into L929sA cells, was tested. […] DEX-mediated and compound A-mediated inhibition of TNF-induced gene expression were used as controls (FIG. 1). In the appended figures, NI stands for non-induced (either in presence of solvent controls like ethanol or DMSO).

[2] = test system: AP1; test: EMSA of AP1 DNA binding in MCF7 cells; assay type: cell-based, human; details: FIG. 7B
Experimental: For the EMSA, the MCF7 cells were pre-treated with varying concentrations of CpdA (10, 1, 0.1, 0.01, and 0.001 μM) and DEX (0.1 μM) for two hours and subsequently TNF-induced or non-TNF-induced during 30 min at 2000 IU/ml. After the induction period, nuclear extracts were examined in EMSA assays. Cells were washed with ice-cold PBS, scraped off, and pelleted in 15 ml of PBS by centrifugation for 5 min at 2600 rpm at 4° C. and lysed for 30 minutes at 4° C. in Totex buffer (20 mM HEPES (pH 7.9), 350 mM NaCl, 1 mM MgCl, 0.5 mM EDTA, 0.1 mM EGTA, 5 mM DTT, 20% glycerol, 1% NP-40, 0.1% PMSF, 1% aprotinin (4 mg/ml leupeptin). Supernatants from a 4000-rpm 10-min centrifugation were collected, aliquoted and stored at −20° C. until further use. Radiolabelled oligonucleotides that correspond to a consensus κB DNA-binding element of the IL-6 promoter, and of activating protein 1 (AP-1) DNA target-were used for appropriate EMSA's. These oligonucleotides of about 25 nucleotides comprise centrally the transcription factor binding motif. […] The samples were analyzed by electrophoresis on 6% native polyacrylamide gels. […] Visualization and quantitation of radioactive signals was carried out by a Phosphorlmager and scanned using a bioimaging analyzer (Personal Molecular Imager® FX Bio-Rad). […]

CNCC(Cl)c1ccc(OC(C)=O)cc1.Cl (centres unmarked) [CpdA, 2-(4-acetoxyphenyl)-2-chloro-N-methyl-ethylammonium chloride] was tested, and the “Inhibition of the expression of E-selectin” value [1] was “inhibit the expression of E-selectin” and the “DNA-binding of transcription factor AP1 (EMSA)” value [2] was “not affected”.
